According to patent US10662203B2, “Pyrido[2,3-b]indole compounds for the treatment and prophylaxis of bacterial infection” (Hoffmann-La Roche Inc., priority 2017, dated 2020):
In brackets after ≈: the same amount, converted by molar mass.

Key:
A. baumannii (ATCC17978) = experiment: 50% growth inhibitory concentration (IC50) determination assay; assay type: cell-based; details: Iso-Sensitest broth, 0.098 = detection limit
Method in brief: (§1)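 Growth was tracked as optical density at 600 nm every 20 minutes for 16 h at 35±2° C, giving IC50 values. Inocula of ~5×10^5 CFU/mL in Iso-Sensitest broth faced two-fold compound dilutions spanning 50 to 0.097 μM final.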

[1] = Lyophilisation solubility assay (LYSA); assay type: physicochemical; details: phosphate buffer, pH 6.5, aqueous buffer, thermodynamic from solid, 0.05 M phosphate buffer, HPLC-UV
Method in brief: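 Read-out is HPLC-UV of the filtered solution and its 1/10 dilution. The dried residue of a 10 mM DMSO stock was redissolved in 0.05 M pH 6.5 phosphate buffer, then stirred 1 h, shaken 2 h and held overnight. Run in duplicate.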

[2] = Cytotoxicity assay (HepG2, CellTiter-Blue cell viability); assay type: cell-based; details: human; HepG2 cells, 3 days treatment; "*": the detection limit; read-out: CC50
Description: The cytotoxicity of compounds of present invention was assessed by HepG2 assay. HepG2 cells (ATCC HB-8065™) were seeded into 96-well plates (1.2×10^4 cells per well) and treated with compounds for 3 days, cell viability was measured at day 3 post compound treatment using the CellTiter-Blue® Cell Viability Assay (Promega, Cat. No. G8082). 20 μL of Cell titer blue buffer were added to each well of the cells, which were incubated for 3 hours at 37° C., and the fluorescence value was measured by a plate reader (Molecular Device SpectraMax M2). The CC50 value of each compound is plotted with GraphPad Prism using four parameter logistic equation.

[3] = system: K. pneumoniae (ATCC10031); experiment: 50% growth inhibitory concentration (IC50) determination assay; assay type: cell-based; details: Iso-Sensitest broth, 0.098 = detection limit
Method in brief: as §1

S. aureus (ATCC29213) = experiment: as above; assay type: cell-based; details: Iso-Sensitest broth, 0.098 = detection limit
Method in brief: as §1

[4] = Acinetobacter baumannii, ATCC17978, A. baumannii ATCC17978

| IC50 (A. baumannii (ATCC17978); [4]) [µM] | solubility thermodynamic [1] [µg/mL] | IC50 ([3]; Klebsiella pneumoniae) [µM] | IC50 (S. aureus (ATCC29213); Staphylococcus aureus) [µM] | SMILES | CC50 at 3 days [2] [nM] | IC50 (A. baumannii (ATCC17978); A. baumannii ATCC17978) [µM] | IC50 [3] [µM] | IC50 (S. aureus (ATCC29213)) [µM] |
| --- | --- | --- | --- | --- | --- | --- | --- | --- |
| 0.19 | 425 (≈ 687 µM) |  |  | CNc1cc(F)c(F)c2c1[nH]c1ncc(-c3cnc4c(c3)c(=O)c(C(=O)O)cn4NCCOC)c(N3CC[C@H]4CN(C)C[C@H]43)c12 (relative stereo) [Example 5.01, 6-[4-[cis-5-methyl-2,3,3a,4,6,6a-hexahydropyrrolo[2,3-c]pyrrol-1-yl]-5,6-difluoro-8-(methylamino)-9H-pyrido[2,3-b]indol-3-yl]-1-(2-methoxyethylamino)-4-oxo-1,8-naphthyridine-3-carboxylic acid] | 43500 |  |  |  |
| 0.294 | 321 (≈ 572 µM) | < 0.098 | 0.11 | CNc1cc(F)c(F)c2c1[nH]c1ncc(-c3cnc4c(c3)c(=O)c(C(=O)O)cn4C)c(N3CCCC3CN(C)C)c12 (centres unmarked) [Example 1.12] | 39200 |  |  |  |
| 0.507 |  | < 0.098 | < 0.098 | CNc1cc(F)c(F)c2c1[nH]c1ncc(-c3cnc4c(c3)c(=O)c(C(=O)O)cn4C)c(N3CCC(F)(CN)C3)c12 (centres unmarked) [Example 1.23] | > 100000 |  |  |  |
| 0.569 |  | < 0.098 | < 0.098 | CNCCn1cc(C(=O)O)c(=O)c2cc(-c3cnc4[nH]c5c(NC)cc(F)c(F)c5c4c3N(C)C)cnc21 [Example 1.26] | 32500 |  |  |  |
| 0.353 |  | < 0.098 | < 0.098 | CNc1cc(F)c(F)c2c1[nH]c1ncc(-c3cnc4c(c3)c(=O)c(C(=O)O)cn4CC3CCN(C)CC3)c(N(C)C)c12 [Example 1.32] | 50100 |  |  |  |
| 0.663 |  | < 0.098 | < 0.098 | CNc1cc(F)c(F)c2c1[nH]c1ncc(-c3cnc4c(c3)c(=O)c(C(=O)O)cn4CC(C)(C)O)c(N3CCOCC3)c12 [Example 1.35] | 76900 |  |  |  |
| 0.883 | 15 (≈ 26 µM) | < 0.098 | 0.181 | CNc1cc(F)c(F)c2c1[nH]c1ncc(-c3cnc4c(c3)c(=O)c(C(=O)O)cn4CC(C)(C)N)c(N3CCOCC3)c12 [Example 1.38] | > 100000 |  |  |  |
| 0.472 |  | < 0.098 | < 0.098 | CNc1cc(F)cc2c1[nH]c1ncc(-c3cnc4c(c3)c(=O)c(C(=O)O)cn4C(C)CO)c(N3CCOCC3)c12 (centres unmarked) [Example 1.45] | > 100000 |  |  |  |
| 0.533 |  | < 0.098 | < 0.098 | CNc1cc(F)c(F)c2c1[nH]c1ncc(-c3cnc4c(c3)c(=O)c(C(=O)O)cn4C(C)CO)c(N3CCOCC3)c12 (centres unmarked) [Example 1.51] | > 100000 |  |  |  |
| 0.461 |  | < 0.098 | < 0.098 | CNc1cc(F)cc2c1[nH]c1ncc(-c3cnc4c(c3)c(=O)c(C(=O)O)cn4C)c(N3CCC(CO)C3)c12 (centres unmarked) [Example 1.54] | > 100000 |  |  |  |
| 0.658 |  | < 0.098 | < 0.098 | CNc1cc(F)cc2c1[nH]c1ncc(-c3cnc4c(c3)c(=O)c(C(=O)O)cn4C)c(N3CCC(C)(O)C3)c12 (centres unmarked) [Example 1.59] | 27900 |  |  |  |
| 0.817 | 600 (≈ 1040 µM) | < 0.098 | 0.139 | CNc1cc(F)c(F)c2c1[nH]c1ncc(-c3cnc4c(c3)c(=O)c(C(=O)O)cn4C)c(N3CCOC(CN(C)C)C3)c12 (centres unmarked) [Example 1.61] | > 100000 |  |  |  |
| 0.32 |  | < 0.098 | < 0.098 | [2H]C([2H])([2H])Nc1cc(F)c(F)c2c1[nH]c1ncc(-c3cnc4c(c3)c(=O)c(C(=O)O)cn4C3CCNC3)c(N(C)C)c12 (centres unmarked) [Example 1.64] | > 100000 |  |  |  |
| 0.923 | 11 (≈ 19.2 µM) | < 0.098 | < 0.098 | CNc1cc(F)cc2c1[nH]c1ncc(-c3cnc4c(c3)c(=O)c(C(=O)O)cn4N3CCOCC3)c(N3CCOCC3)c12 [Example 1.71] | > 100000 |  |  |  |
| 0.132 |  | < 0.098 | < 0.098 | CNc1cc(F)c(F)c2c1[nH]c1ncc(-c3cnc4c(c3)c(=O)c(C(=O)O)cn4C)c(N3CCCC(CN(C)C)C3)c12 (centres unmarked) [Example 1.80] | 27500 |  |  |  |
| 0.748 |  | < 0.098 | < 0.098 | CNc1cc(F)c(F)c2c1[nH]c1ncc(-c3cnc4c(c3)c(=O)c(C(=O)O)cn4C)c(N3C[C@H](O)[C@@H](F)C3)c12 [Example 1.82] | > 100000 |  |  |  |
| 0.519 |  | < 0.098 | < 0.098 | CNc1cc(F)c(F)c2c1[nH]c1ncc(-c3cnc4c(c3)c(=O)c(C(=O)O)cn4C)c(N3C[C@H](C)[C@@H](O)C3)c12 [Example 1.83] | 26400 |  |  |  |

| IC50 (A. baumannii (ATCC17978); [4]) [µM] | solubility thermodynamic [1] [µg/mL] | IC50 ([3]; Klebsiella pneumoniae) [µM] | IC50 (S. aureus (ATCC29213); Staphylococcus aureus) [µM] | SMILES | CC50 at 3 days [2] [nM] | IC50 (A. baumannii (ATCC17978); A. baumannii ATCC17978) [µM] | IC50 [3] [µM] | IC50 (S. aureus (ATCC29213)) [µM] |
| --- | --- | --- | --- | --- | --- | --- | --- | --- |
| 0.326 |  | 0.11 | < 0.098 | CNc1cc(F)c(F)c2c1[nH]c1ncc(-c3cnc4c(c3)c(=O)c(C(=O)O)cn4C)c(N3CCC(C)(CO)C3)c12 (centres unmarked) [Example 1.84] | 26800 |  |  |  |
| 0.744 |  | 0.107 | 8.84 | CNc1cc(F)c(F)c2c1[nH]c1ncc(-c3cnc4c(c3)c(=O)c(C(=O)O)cn4C3CCNC3)c(N3CCSCC3)c12 (centres unmarked) [Example 1.98] | > 100000 |  |  |  |
| 0.586 |  | < 0.098 | < 0.098 | CNc1cc(F)cc2c1[nH]c1ncc(-c3cnc4c(c3)c(=O)c(C(=O)O)cn4NC)c(N3CC4[C@@H](C3)OCCN4C)c12 (some centres unmarked) [Example 1.113] | > 100000 |  |  |  |
|  | 11 (≈ 19.1 µM) |  |  | CNc1cc(F)c(F)c2c1[nH]c1ncc(-c3cnc4c(c3)c(=O)c(C(=O)O)cn4C)c(N3CCN4CCOCC4C3)c12 (centres unmarked) [Example 1.134] | > 100000 |  |  |  |
| 0.631 |  | < 0.098 | < 0.098 | CCNc1cc(F)c(F)c2c1[nH]c1ncc(-c3cnc4c(c3)c(=O)c(C(=O)O)cn4C3CCNC3)c(N(C)C)c12 (centres unmarked) [Example 1.140] | > 100000 |  |  |  |
|  |  |  |  | CNc1cc(F)c(F)c2c1[nH]c1ncc(-c3cnc4c(c3)c(=O)c(C(=O)O)cn4C3CCNC3)c(N(C)C)c12 (centres unmarked) [Example 1.150] | > 100000 | 0.273 | < 0.098 | < 0.098 |
| 0.311 |  | < 0.098 | < 0.098 | CNc1cc(F)c(F)c2c1[nH]c1ncc(-c3cnc4c(c3)c(=O)c(C(=O)O)cn4C)c(N3CC[C@@H](O)C3)c12 [Example 1.151] | 37200 |  |  |  |
| 0.171 |  | < 0.098 | < 0.098 | CNc1cc(F)c(F)c2c1[nH]c1ncc(-c3cnc4c(c3)c(=O)c(C(=O)O)cn4C)c(N3CC[C@H](O)C3)c12 [Example 1.163] | 28800 |  |  |  |
| 0.472 |  | < 0.098 | < 0.098 | CNc1cc(F)c(F)c2c1[nH]c1ncc(-c3cnc4c(c3)c(=O)c(C(=O)O)cn4C)c(N3CC[C@H](CO)C3)c12 [Example 1.164] | 99300 |  |  |  |
| 0.336 |  | < 0.098 | < 0.098 | CNc1cc(F)c(F)c2c1[nH]c1ncc(-c3cnc4c(c3)c(=O)c(C(=O)O)cn4C)c(N3CC[C@@H](CO)C3)c12 [Example 1.165] | > 100000 |  |  |  |
| 0.199 |  | < 0.098 | < 0.098 | CNc1cc(F)c(F)c2c1[nH]c1ncc(-c3cnc4c(c3)c(=O)c(C(=O)O)cn4C)c(N3CCC4(CCCN(CCO)C4)C3)c12 (centres unmarked) [Example 1.194] | 72000 |  |  |  |
| 0.18 |  | < 0.098 | 0.168 | CNc1cc(F)cc2c1[nH]c1ncc(-c3cnc4c(c3)c(=O)c(C(=O)O)cn4NC)c(N3CC[C@H]4CCN(C)C4C3)c12 (some centres unmarked) [Example 1.212] | 33900 |  |  |  |
| 0.111 |  | < 0.098 | < 0.098 | CNc1cc(F)c(F)c2c1[nH]c1ncc(-c3cnc4c(c3)c(=O)c(C(=O)O)cn4NC)c(N3CC[C@H]4CN(C)C4C3)c12 (some centres unmarked) [Example 1.214] | 40800 |  |  |  |
| 0.424 |  | < 0.098 | < 0.098 | CNc1cc(F)cc2c1[nH]c1ncc(-c3cnc4c(c3)c(=O)c(C(=O)O)cn4[C@@H](C)CO)c(N3CCOCC3)c12 [Example 1.216] | > 100000 |  |  |  |
| 0.542 |  | < 0.098 | < 0.098 | CNc1cc(F)c(F)c2c1[nH]c1ncc(-c3cnc4c(c3)c(=O)c(C(=O)O)cn4C)c(N3CCC4(CCN(C)C4)CC3)c12 [Example 1.231] | 37200 |  |  |  |
| 0.104 |  | < 0.098 | < 0.098 | CNc1cc(F)c(F)c2c1[nH]c1ncc(-c3cnc4c(c3)c(=O)c(C(=O)O)cn4C)c(N3CCC4(CCCN4C)C3)c12 (centres unmarked) [Example 1.239] | 32900 |  |  |  |
| 0.088 |  | < 0.098 | < 0.098 | CNc1cc(F)c(Cl)c2c1[nH]c1ncc(-c3cnc4c(c3)c(=O)c(C(=O)O)cn4C)c(N3CCOCC3)c12 [Example 1.269] | 40800 |  |  |  |
